In US8110596B2, “Triprenyl phenol compound, process for production of triprenyl phenol compound, and thrombolysis enhancer” (Tokyo University of Agriculture and Technology TLO Co., Ltd., priority 2006, dated 2012):

Columns and labels:
plasminogen [1] = target: T1, plasminogen (Homo sapiens, UniProt P00747); assay: Measurement of activity of plasminogen fragment production (Example 5); assay type: biochemical; settings: 50 μM, 100 μM and 200 μM; 60 minutes at 37° C., SDS polyacrylamide gel electrophoresis
Protocol: (§1) The fibrinolysis enhancing activity of SMTP-0 (50 μM, 100 μM and 200 μM) obtained in Example 2 was evaluated as follows, as the activity for promoting the plasminogen activation by urokinase catalysis.
(§2) A 30 mM solution of SMTP (DMSO solution) was diluted with TBS/T (50 mM Tris-HCl, 100 mM NaCl and 0.01% Tween80, pH 7.4) to prepare a 1.5 mM solution (in 5% DMSO·TBS/T). This solution was diluted with 5% DMSO in TBS/T to prepare SMTP solutions at the concentrations mentioned above.
(1) Measurement of Activity of Plasminogen Fragment Production
An SMTP solution (60 μl) was mixed with 240 μl of a reaction liquid at a 1.25-fold concentration (not containing VLK-pNA (Val-Leu-Lys-p-nitroanilide)), and the mixture was allowed to react for 60 minutes at 37° C. Then, 75 μl of 50% trichloroacetic acid (TCA) was added to terminate the reaction, and the mixture was left to stand in ice for 60 minutes. TCA-insoluble materials were precipitated by centrifugation, and the precipitate was washed two times with acetone. The obtained precipitate was dried, and then dissolved with 11 μl of added SDS sample buffer (0.125 M Tris-Cl, pH 6.8, 4% SDS, 20% glycerol and 0.02% bromophenol blue). 10 μl of the solution was used to perform SDS polyacrylamide gel electrophoresis (10% gel).

plasminogen [2] = target: T1, plasminogen; assay: Measurement of plasminogen activation by urokinase catalysis, VLK-pNA hydrolysis (Example 5); assay type: biochemical; settings: 50 μM, 100 μM and 200 μM, 37° C., 60 minutes
Protocol: as §1, §2
(2) Measurement of Plasminogen Activation
10 μl of an SMTP solution (10 μl) was mixed with 40 μl of a reaction liquid at a 1.25-fold concentration (0.0625 μM of plasminogen, 62.5 U/ml of urokinase, and 0.125 mM of VLK-pNA) in a 96-well microplate, and measurement was made by immediately monitoring the absorption of the hydrolysis of VLK-pNA at 405 nm over time with a microplate reader. The measurement was performed at 37° C. for 60 minutes at an interval of 2 minutes.

T1 sequence (P00747 20-810 limits assumed, species assumed): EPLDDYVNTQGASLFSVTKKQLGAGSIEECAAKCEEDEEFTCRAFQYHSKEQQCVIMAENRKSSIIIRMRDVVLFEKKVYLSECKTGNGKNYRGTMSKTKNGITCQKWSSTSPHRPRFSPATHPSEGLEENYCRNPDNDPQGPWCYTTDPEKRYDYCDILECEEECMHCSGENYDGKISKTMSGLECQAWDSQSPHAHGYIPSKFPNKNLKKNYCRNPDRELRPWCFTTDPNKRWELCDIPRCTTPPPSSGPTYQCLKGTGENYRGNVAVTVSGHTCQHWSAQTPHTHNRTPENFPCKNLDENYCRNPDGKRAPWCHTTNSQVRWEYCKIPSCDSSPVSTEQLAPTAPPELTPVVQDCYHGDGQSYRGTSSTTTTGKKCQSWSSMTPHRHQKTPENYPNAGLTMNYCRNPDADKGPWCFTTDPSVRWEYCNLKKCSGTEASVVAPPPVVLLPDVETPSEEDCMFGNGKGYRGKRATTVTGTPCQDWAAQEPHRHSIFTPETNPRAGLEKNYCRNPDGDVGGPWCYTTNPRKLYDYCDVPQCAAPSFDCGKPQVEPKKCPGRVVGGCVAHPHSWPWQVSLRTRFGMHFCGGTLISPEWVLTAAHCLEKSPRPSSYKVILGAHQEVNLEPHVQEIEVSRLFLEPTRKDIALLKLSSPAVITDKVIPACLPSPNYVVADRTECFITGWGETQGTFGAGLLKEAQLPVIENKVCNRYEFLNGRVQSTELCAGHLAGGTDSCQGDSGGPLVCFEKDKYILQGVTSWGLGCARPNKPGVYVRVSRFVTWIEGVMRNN

action on the generation of plasminogen fragments having the angiogenesis inhibitory activity (plasminogen [1]): did not exhibit any action
action of enhancing the plasminogen activation (plasminogen [2]): did not indicate any action
SMILES: CC(C)=CCC/C(C)=C/CC[C@]1(C)Oc2c(c(O)cc3c2CNC3=O)C[C@@H]1O [SMTP-0]
